Laboratory results: PMC8375990, “The flavin monooxygenase Bs3 triggers cell death in plants, impairs growth in yeast and produces H2O2 in vitro” (PLoS ONE, 2021)

What was measured:
Bs3 [1] = biological target: T1, Bs3 (Capsicum annuum, UniProt A8TVP6); test: NADPH oxidation, decrease of absorbance at […] nm; type: biochemical
T1 construct: gene T459_32270; Gateway recombination site and the two N-terminal methionines deleted
T1 sequence (A8TVP6 3-342): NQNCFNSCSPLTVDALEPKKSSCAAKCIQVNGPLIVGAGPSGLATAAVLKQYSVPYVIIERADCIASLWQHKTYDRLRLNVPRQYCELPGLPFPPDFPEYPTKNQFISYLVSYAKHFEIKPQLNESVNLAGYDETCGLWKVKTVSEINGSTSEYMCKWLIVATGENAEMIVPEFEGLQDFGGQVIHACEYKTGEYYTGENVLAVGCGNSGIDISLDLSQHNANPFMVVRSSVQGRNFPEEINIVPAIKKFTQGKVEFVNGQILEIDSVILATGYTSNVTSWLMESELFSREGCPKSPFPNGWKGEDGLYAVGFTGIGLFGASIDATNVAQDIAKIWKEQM

Bs3 [2] = biological target: T1, Bs3; test: UV-vis spectrum of purified protein; type: binding; conditions: FAD added to lysis buffer; co-purified
Bs3 [3] = biological target: T2, Bs3 (Capsicum annuum, UniProt A8TVP6, S211A); test: UV-vis spectrum of purified protein; type: binding; conditions: FAD added to lysis buffer; co-purified
T2 construct: gene T459_32270; Gateway recombination site and the two N-terminal methionines deleted
T2 sequence (A8TVP6 entry or part of it S211A): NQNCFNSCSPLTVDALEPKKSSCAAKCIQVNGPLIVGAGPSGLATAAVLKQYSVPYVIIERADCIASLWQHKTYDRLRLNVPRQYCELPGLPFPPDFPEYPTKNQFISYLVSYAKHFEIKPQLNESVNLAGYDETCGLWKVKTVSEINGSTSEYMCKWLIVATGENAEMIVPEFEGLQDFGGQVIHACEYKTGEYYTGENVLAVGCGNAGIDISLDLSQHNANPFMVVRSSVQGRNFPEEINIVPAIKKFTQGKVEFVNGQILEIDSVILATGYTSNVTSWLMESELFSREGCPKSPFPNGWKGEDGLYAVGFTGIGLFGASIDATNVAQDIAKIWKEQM

SMILES | inhibition at 50 µM (Bs3 [1]) [%] | UV-vis spectrum of purified protein (Bs3 [2]) | UV-vis spectrum of purified protein (Bs3 [3])
Cn1cc[nH]c1=S [methimazole] | 79 |  | 
Sc1nnc(-c2ccc(Cl)cc2)[nH]1 [yucasin] | 95 |  | 
Cc1cc2nc3c(=O)[nH]c(=O)nc-3n(C[C@H](O)[C@H](O)[C@H](O)COP(=O)(O)OP(=O)(O)OC[C@H]3O[C@@H](n4cnc5c(N)ncnc54)[C@H](O)[C@@H]3O)c2cc1C [FAD] |  | purified Bs3 and Bs3S211A proteins were bright yellow and the UV-vis spectra show characteristic peaks | purified Bs3 and Bs3S211A proteins were bright yellow and the UV-vis spectra show characteristic peaks
